Test results from PMC6291622, “Vitamin E Increases Antimicrobial Sensitivity by Inhibiting Bacterial Lipocalin Antibiotic Binding” (mSphere, 2018).

Biological target: T1, BcnA (Burkholderia cenocepacia, UniProt B4EE32)
T1 construct: gene BCAL3311; purified BcnA expressed from pET28a-bcnA in E. coli BL21
T1 sequence (B4EE32 27-186): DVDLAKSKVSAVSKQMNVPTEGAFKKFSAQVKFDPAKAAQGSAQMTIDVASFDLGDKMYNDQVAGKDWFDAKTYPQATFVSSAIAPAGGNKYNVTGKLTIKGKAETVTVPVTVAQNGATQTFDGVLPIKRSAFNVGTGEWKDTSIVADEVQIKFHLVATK
Test: isothermal titration calorimetry (ITC), […]°C, PBS pH […], N = […]
Type: binding

Work on `CCn1cc(C(=O)O)c(=O)c2cc(F)c(N3CCNCC3)cc21` [norfloxacin] yielded a Kd of 4.9 mM.
